# Assay results reported in paper PMC8151276, “An Integrated Approach toward NanoBRET Tracers for Analysis of GPCR Ligand Engagement” (Molecules, 2021).
# Columns and labels:
# Assay type in all cases: binding
# [1] = biological target: T1, TBXA2R (Homo sapiens, UniProt P21731); assay: NanoBRET screen HiBiT-TBXA2R in HEK293; conditions: TBXA2R
# T1 construct: purchased Promega (in-house HiBiT-GPCR construct library, NanoBRET)
# T1 sequence (P21731 1-343): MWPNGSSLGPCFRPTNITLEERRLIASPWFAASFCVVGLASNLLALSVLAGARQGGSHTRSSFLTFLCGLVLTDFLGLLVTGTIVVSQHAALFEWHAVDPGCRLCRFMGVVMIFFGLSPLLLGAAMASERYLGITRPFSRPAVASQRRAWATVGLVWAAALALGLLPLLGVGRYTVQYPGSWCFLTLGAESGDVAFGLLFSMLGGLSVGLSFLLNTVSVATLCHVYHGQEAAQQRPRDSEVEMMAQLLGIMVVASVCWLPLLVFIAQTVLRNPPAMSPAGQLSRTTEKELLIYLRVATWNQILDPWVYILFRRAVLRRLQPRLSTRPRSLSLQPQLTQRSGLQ
# Procedure: (§1) Each tracer candidate was screened across the entire library of HiBiT-GPCR constructs using NanoBRET as the detection modality. As depicted in Figure 4A, the specificity of interactions was evaluated through decrease in BRET due to competitive displacement of a bound tracer by excess parental compound. Each tracer was analyzed for binding to each HiBiT-GPCR fusion in the absence and in the presence of competing parental compound. Briefly, HEK293 cells were transfected with HiBiT-GPCR constructs diluted into promoterless DNA to reduce expression and maximize translocation to the cell surface. Each tracer candidate was then screened at concentrations of 1 μM and 0.1 μM across cells expressing these fusions. Cells were treated for 1.5 h with tracer either alone or in the presence of 20 μM competing parental compound (i.e., control). BRET was measured upon addition of purified LgBiT and subsequent complementation with HiBiT genetically fused to a GPCR. The specificity of interactions was assessed through a decrease in BRET signal due to competitive displacement of the bound tracer. To further gauge the robustness of these interactions, the fold response over the control (i.e., BRETtracer/BRETcontrol) was calculated. We chose a 1.5-fold response, which translates to ≥7-fold signal over noise as the minimal threshold required to score an interaction as positive. […]. Below we highlight the screening results obtained for our exemplary fluorescent tracers based on Clozapine, Amitriptyline and AZD1283.
# (§2) HiBiT-GPCR DNA constructs were diluted in 10 mM Tris pH 8 to a final concentration of 0.01 μg/μL, arrayed in 96-well plates and stored at −20 °C. For transfection, HEK293 cells were suspended in Opti-MEM (without phenol red) supplemented with 2% fetal bovine serum (Seradigm) and 100 units/mL penicillin–streptomycin (Gibco) at a final concentration of 220,000 cells/mL and dispensed into white 96-well plates at 90 μL/well. Subsequent transfections and screens were carried using an Agilent Bravo Automated Liquid Handling Platform. First, the 96-well HiBiT DNA arrays were diluted 25-fold in Opti-MEM (without serum or phenol red) to a final concentration of 0.0004 μg/μL and 20 μL of the diluted DNAs were transferred into new 96-well plates. Next, promoterless carrier DNA (1 μg/μL) was diluted 25-fold (0.04 μg/μL) and then dispensed into the diluted arrays at 20 μL/well. Following brief mixing, Viafect transfection reagent (Promega) diluted 16-fold into Opti-MEM was dispensed into the plates at 40 μL/well. After mixing by pipetting, plates were incubated for 10 min on the pipetting station deck. The DNA-transfection reagent complexes were then added to plates containing cells. To facilitate the screen, 10 μL of DNA-transfection reagent complexes were added in duplicates to the top 4 and bottom 4 rows, resulting in two identical 48-well arrays per plate. Plates with transfected cells were incubated for 18–20 h at 37 °C/5% CO2. A screen of each tracer across the entire library using two different concentrations requires duplicate plates of transfected cells. Depending on the number of tracers being screened, transfections can be scaled up using the same ratios. The next day, for each tracer, four 20× screening solutions in tracer dilution buffer (Promega) were prepared: two duplicates at final concentration of 20 μM and two duplicates at a final concentration of 2 μM. A competing unmodified compound was added to one of each duplicate at a final concentration of 400 μM. The four resulting solutions were diluted 4-fold in Opti-MEM without serum or phenol red to generate 5× solutions (5 µM and 0.5 µM tracer +/− 100 μM competing compound). To screen the library, a BioTek MultiFlo FX liquid dispenser was used to dispense 22.5 µL of tracer solution to the top 4 rows and 22.5 µL tracer + competing compound solution to the 4 bottom rows. Plates were briefly mixed on an orbital shaker and incubated for 1.5 h at room temperature. […]
# [2] = biological target: T2, CCR9 (Homo sapiens, UniProt P51686); assay: NanoBRET screen HiBiT-CCR9 in HEK293; conditions: CCR9
# T2 construct: purchased Promega (in-house HiBiT-GPCR construct library, NanoBRET)
# T2 sequence (P51686 1-369): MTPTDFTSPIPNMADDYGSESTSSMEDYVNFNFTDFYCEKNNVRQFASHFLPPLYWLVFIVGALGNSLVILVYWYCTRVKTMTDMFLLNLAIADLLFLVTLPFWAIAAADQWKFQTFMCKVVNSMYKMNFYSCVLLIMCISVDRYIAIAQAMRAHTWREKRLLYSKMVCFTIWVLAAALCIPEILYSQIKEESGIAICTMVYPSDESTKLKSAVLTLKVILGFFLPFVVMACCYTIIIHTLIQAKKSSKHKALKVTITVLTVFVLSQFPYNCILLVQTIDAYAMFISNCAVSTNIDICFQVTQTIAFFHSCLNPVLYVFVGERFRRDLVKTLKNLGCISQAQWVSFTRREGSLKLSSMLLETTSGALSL
# Procedure: as §1, §2
# [3] = biological target: T3, PTGER2 (Homo sapiens, UniProt P43116); assay: NanoBRET screen HiBiT-PTGER2 in HEK293; conditions: PTGER2
# T3 construct: purchased Promega (in-house HiBiT-GPCR construct library, NanoBRET)
# T3 sequence (P43116 whole entry): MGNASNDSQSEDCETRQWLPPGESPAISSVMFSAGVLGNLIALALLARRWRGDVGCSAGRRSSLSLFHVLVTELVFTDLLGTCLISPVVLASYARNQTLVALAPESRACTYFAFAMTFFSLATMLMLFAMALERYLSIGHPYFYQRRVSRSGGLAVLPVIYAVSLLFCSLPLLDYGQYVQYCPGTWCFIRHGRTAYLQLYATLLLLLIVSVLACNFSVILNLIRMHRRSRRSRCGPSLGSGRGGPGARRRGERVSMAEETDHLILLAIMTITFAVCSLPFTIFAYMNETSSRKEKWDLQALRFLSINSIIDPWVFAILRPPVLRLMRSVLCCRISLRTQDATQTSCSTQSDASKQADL
# Procedure: as §1, §2
SMILES,NanoBRET Fold Response ([1]; 0.1μM),NanoBRET Fold Response ([1]; 1μM),NanoBRET Fold Response ([2]; 0.1μM),NanoBRET Fold Response ([2]; 1μM),NanoBRET Fold Response ([3]; 0.1μM),NanoBRET Fold Response ([3]; 1μM),NanoBRET Fold Response ([1]; tracer 0.1μM),NanoBRET Fold Response ([1]; tracer 1μM),NanoBRET Fold Response ([2]; tracer 0.1μM),NanoBRET Fold Response ([2]; tracer 1μM),NanoBRET Fold Response ([3]; tracer 0.1μM),NanoBRET Fold Response ([3]; tracer 1μM)
O=C(CCc1ccc2n1[B-](F)(F)[N+]1=C(c3ccc[nH]3)C=CC1=C2)NCc1ccc(C(=O)NCCOCCOCCNCC(O)COc2cccc3ccccc23)cc1 (stereo not drawn) [Propranolol-3-NB590],0.97,1.09,1.08,1.00,1.00,1.02,,,,,,
O=C(CCc1ccc2n1[B-](F)(F)[N+]1=C(c3ccc[nH]3)C=CC1=C2)NCCOCCOCCNC(=O)OCCOCCN1CCN(C2=Nc3ccccc3Sc3ccccc32)CC1 [Quetiapine-a-2-NB590],,,,,,,1.01,1.05,1.05,0.96,0.96,1.05
Cc1nc2n(c(=O)c1CCN1CCC(c3noc4cc(F)ccc34)CC1)CCCC2OC(=O)NCCOCCOCCOCCOCCNC(=O)CCc1ccc2n1[B-](F)(F)[N+]1=C(c3ccc[nH]3)C=CC1=C2 (stereo not drawn) [Risperidone-2-NB590],,,,,,,0.93,1.01,1.02,0.94,1.01,1.05
CC(C)N(CC[C@H](c1ccccc1)c1cc(CCNC(=O)CCOCCOCCOCCOCCNC(=O)CCc2ccc3n2[B-](F)(F)[N+]2=C(c4ccc[nH]4)C=CC2=C3)ccc1O)C(C)C [Tolterodine-2-NB590],,,,,,,0.79,1.01,1.12,0.95,1.00,1.01
CC(C)N(CC[C@H](c1ccccc1)c1cc(CCNC(=O)c2ccc(CNC(=O)CCc3ccc4n3[B-](F)(F)[N+]3=C(c5ccc[nH]5)C=CC3=C4)cc2)ccc1O)C(C)C [Tolterodine-BZ-NB590],,,,,,,0.91,1.03,0.74,1.14,1.04,0.97
CCCn1c(=O)c2[nH]c(-c3ccc(OCC(=O)NCCNC(=O)CCOCCNC(=O)c4ccc(CNC(=O)CCc5ccc6n5[B-](F)(F)[N+]5=C(c7ccc[nH]7)C=CC5=C6)cc4)cc3)nc2n(CCC)c1=O [XAC-3-NB590],,,,,,,1.04,1.04,0.95,1.57,1.04,1.09
